We go through eight molecules from patent US20260070899A1, “N-(2-(4-CYANOTHIAZOLIDIN-3-YL)-2-OXOETHYL)-QUINOLINE-4-CARBOXAMIDES” (AstraZeneca AB, priority 2022, published 2026).

For data set [1], the target named is T1, Prolyl endopeptidase, Prolyl Oligopeptidase (hPREP) (Homo sapiens, UniProt P48147).
T1 sequence (P48147 1-710): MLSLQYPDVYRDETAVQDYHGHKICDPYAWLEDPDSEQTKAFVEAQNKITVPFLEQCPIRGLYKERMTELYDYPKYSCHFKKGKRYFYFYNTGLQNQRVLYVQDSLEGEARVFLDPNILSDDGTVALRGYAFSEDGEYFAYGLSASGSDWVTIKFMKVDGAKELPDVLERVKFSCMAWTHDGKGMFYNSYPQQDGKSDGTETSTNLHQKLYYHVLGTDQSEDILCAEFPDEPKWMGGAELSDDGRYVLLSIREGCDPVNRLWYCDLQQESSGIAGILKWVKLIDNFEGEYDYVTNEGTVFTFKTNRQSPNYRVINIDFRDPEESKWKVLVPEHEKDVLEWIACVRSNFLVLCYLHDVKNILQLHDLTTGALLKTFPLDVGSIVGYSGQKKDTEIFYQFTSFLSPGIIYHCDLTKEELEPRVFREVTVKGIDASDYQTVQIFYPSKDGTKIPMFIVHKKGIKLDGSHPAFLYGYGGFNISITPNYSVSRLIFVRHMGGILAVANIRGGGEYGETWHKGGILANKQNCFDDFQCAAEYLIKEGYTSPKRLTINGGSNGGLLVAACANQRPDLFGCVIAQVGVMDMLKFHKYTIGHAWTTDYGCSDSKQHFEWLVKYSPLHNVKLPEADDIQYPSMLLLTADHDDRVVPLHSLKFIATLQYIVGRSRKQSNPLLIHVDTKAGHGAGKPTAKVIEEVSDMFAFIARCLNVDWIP
Nature of the data set: biochemical.

A further data set deals with T2, hFAP (Homo sapiens, UniProt Q12884).
T2 sequence (Q12884 38-760): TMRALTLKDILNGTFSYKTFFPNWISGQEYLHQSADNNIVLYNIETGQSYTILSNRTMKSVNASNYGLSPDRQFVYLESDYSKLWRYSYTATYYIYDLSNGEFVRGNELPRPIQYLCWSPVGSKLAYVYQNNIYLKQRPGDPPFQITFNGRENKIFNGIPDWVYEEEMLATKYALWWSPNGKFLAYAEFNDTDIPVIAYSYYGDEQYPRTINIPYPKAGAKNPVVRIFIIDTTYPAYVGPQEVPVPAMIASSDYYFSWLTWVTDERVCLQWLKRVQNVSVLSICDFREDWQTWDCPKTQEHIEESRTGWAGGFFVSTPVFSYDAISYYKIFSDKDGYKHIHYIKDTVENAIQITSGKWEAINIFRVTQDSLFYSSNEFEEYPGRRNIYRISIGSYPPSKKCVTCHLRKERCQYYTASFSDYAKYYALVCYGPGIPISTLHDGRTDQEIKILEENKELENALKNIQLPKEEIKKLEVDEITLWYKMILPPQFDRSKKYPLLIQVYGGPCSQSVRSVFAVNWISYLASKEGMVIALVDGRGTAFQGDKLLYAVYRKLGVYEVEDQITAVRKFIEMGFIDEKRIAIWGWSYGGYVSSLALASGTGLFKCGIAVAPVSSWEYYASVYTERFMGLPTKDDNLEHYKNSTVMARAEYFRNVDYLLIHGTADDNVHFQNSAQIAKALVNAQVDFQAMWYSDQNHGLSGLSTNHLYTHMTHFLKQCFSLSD
The experiment in a line: biochemical.

The target in another data set is T3, hFAP (M39-A757) (Homo sapiens, UniProt Q12884).
T3 sequence (Q12884 39-757): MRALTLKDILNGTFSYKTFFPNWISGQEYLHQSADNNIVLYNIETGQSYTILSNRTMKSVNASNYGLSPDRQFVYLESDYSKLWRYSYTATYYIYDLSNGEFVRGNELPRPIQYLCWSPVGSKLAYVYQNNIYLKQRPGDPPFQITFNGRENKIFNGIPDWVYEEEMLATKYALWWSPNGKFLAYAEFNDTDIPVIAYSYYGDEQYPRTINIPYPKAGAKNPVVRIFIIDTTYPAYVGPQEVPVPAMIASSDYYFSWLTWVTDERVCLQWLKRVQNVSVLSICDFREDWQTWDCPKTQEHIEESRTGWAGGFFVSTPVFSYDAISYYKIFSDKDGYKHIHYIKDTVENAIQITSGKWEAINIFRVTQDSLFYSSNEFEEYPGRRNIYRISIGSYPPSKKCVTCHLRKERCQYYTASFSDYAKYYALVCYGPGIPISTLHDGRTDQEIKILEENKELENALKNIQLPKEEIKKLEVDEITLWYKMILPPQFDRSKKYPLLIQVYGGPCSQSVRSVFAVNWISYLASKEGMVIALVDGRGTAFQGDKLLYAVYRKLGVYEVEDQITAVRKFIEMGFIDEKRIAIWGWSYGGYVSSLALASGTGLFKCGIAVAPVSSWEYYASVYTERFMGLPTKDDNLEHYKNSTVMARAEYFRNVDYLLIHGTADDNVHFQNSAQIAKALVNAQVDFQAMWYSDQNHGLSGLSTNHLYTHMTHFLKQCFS
The experiment in a line: biochemical.

The nature of the next data set: Kinetic solubility. The following applies: kinetic from dmso stock, n = 1 or average (n = 2-4). The data set is classed as physicochemical. How it is done:
Kinetic solubility was measured as described in Comput Aided Mol Des 2015, 29, 795.

Another data set has as its system Rat Hepatocytes (rHep). Nature of the data set: Metabolic stability in rat hepatocytes (rHep). The data set is classed as in vitro ADME. To be noted: n = 1 or geometric mean (n = 2-3). How it is done:
Metabolic stability in rat hepatocytes was measured as described in J Comput Aided Mol Des 2015, 29, 795.

Data set [2] in a line: Metabolic stability in human liver microsomes (HLM). Type of data set: in vitro ADME. The following applies: n = 1 or average (n = 2-3). As to the method: Metabolic stability in HLM was measured as described in J Comput Aided Mol Des 2015, 29, 795.
Data set [3] in a line: Caco-2 bidirectional (ABBA) permeability. The data set is classed as in vitro ADME. The following applies: human. How it is done:
Caco-2 cell permeability was measured as described in Mol Pharm 2017, 14, 1601.

In brackets after ≈: the same amount, converted by molar mass.
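Throughout, for Kd: surface plasmon resonance direct binding to hFAP amine-coupled on a sensor chip, rising compound concentrations by single cycle kinetics, Kd from global fit of interaction models.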

For `Cc1cc(Cc2ccc3nccc(C(=O)NCC(=O)N4CSC[C@H]4C#N)c3c2)n(C)n1` [Example 40, (R)—N-(2-(4-Cyanothiazolidin-3-yl)-2-oxoethyl)-6-((1,3-dimethyl-1H-pyrazol-5-yl)methyl)quinoline-4-carboxamide], the values for the IC50 (in data set [1]; on hFAP) were 600 nM and 0.25 nM, respectively. On hFAP (M39-A757), this molecule showed a Kd of 0.13 nM. Also, the solubility in the data set “Kinetic solubility” was more than 1000 µM. Further, the “rHeps CLint” value with Rat Hepatocytes (rHep) stood at 21 μL/min/1E6. In data set [2], the microsomal CLint turned out to be 29 µL/min/mg.
`Cc1cc(Cc2ccc3nccc(C(=O)NCC(=O)N4CSC[C@H]4C#N)c3c2)no1` [Example 42, (R)—N-(2-(4-Cyanothiazolidin-3-yl)-2-oxoethyl)-6-((5-methylisoxazol-3-yl)methyl)quinoline-4-carboxamide]: the IC50 amounted to 180 nM in data set [1] and 0.27 nM against hFAP. The molecule further showed a Kd on hFAP (M39-A757) of 0.2 nM. Besides, the concentration in solution in the data set “Kinetic solubility” (solubility) came to 190 µM (≈ 80.1 µg/mL). Moreover, the “rHeps CLint” value in the data set with Rat Hepatocytes (rHep) is 23 μL/min/1E6. In data set [2], the microsomal CLint was 12 µL/min/mg.
`Cc1ccc(C2(c3ccc4nccc(C(=O)NCC(=O)N5CSC[C@H]5C#N)c4c3)CC2)cn1` [Example 43, (R)—N-(2-(4-Cyanothiazolidin-3-yl)-2-oxoethyl)-6-(1-(6-methylpyridin-3-yl)cyclopropyl)quinoline-4-carboxamide]: the IC50 in data set [1] turned out to be 370 nM; at hFAP it was 0.094 nM. Further, at hFAP (M39-A757), binding was characterised by a dissociation constant (Kd) of 0.39 nM. In “Kinetic solubility”, this molecule had a solubility of 60 µM (≈ 27.5 µg/mL). Moreover, the “rHeps CLint” value in the data set with Rat Hepatocytes (rHep) is 78 μL/min/1E6. This molecule returned a microsomal CLint in data set [2] of 100 µL/min/mg.
Turning to `N#C[C@@H]1CSCN1C(=O)CNC(=O)c1ccnc2ccc(C3(C#N)CCOCC3)cc12` [Example 59, (R)-6-(4-Cyanotetrahydro-2H-pyran-4-yl)-N-(2-(4-cyanothiazolidin-3-yl)-2-oxoethyl)quinoline-4-carboxamide], the IC50 in data set [1] turned out to be 430 nM. In “Kinetic solubility”, this molecule gave a solubility of 480 µM (≈ 209 µg/mL). Besides, in the data set on Rat Hepatocytes (rHep), the “rHeps CLint” value worked out at 20 μL/min/1E6. Also, in data set [2], the microsomal CLint worked out at 30 µL/min/mg. The Papp A→B in data set [3] (A to B, n = 1 or average (n = 2), read-out: Caco2 Bidirectional (ABBA) A to B Papp) was determined as 0.24 ×10⁻⁶ cm/s. Besides, in data set [3] (B to A, n = 1 or average (n = 2), read-out: Caco2 Bidirectional (ABBA) B to A Papp), the Papp B→A came out at 21 ×10⁻⁶ cm/s. The efflux ratio in data set [3] (read-out: Caco2 Bidirectional (ABBA) Efflux Ratio) is 90.
Turning to `N#C[C@@H]1CSCN1C(=O)CNC(=O)c1ccnc2ccc(C(F)F)cc12` [Example 71, (R)—N-(2-(4-Cyanothiazolidin-3-yl)-2-oxoethyl)-6-(difluoromethyl)-quinoline-4-carboxamide], the half-inhibitory concentration (IC50) in data set [1] was 15 nM; against hFAP it was 0.43 nM. Further, the Kd on hFAP (M39-A757) was 0.4 nM. In the data set “Kinetic solubility”, the solubility was more than 1000 µM. Besides, the “rHeps CLint” value in the data set on Rat Hepatocytes (rHep) is 8.7 μL/min/1E6. Further, the microsomal CLint in data set [2] was determined as 16 µL/min/mg.
Turning to `COCCCOc1ccc(-c2ccc3nccc(C(=O)NCC(=O)N4CSC[C@H]4C#N)c3c2)cc1` [Example 72, (R)—N-(2-(4-Cyanothiazolidin-3-yl)-2-oxoethyl)-6-(4-(3-methoxy-propoxy)phenyl)quinoline-4-carboxamide], the IC50 came to 540 nM in data set [1] and 0.2 nM against hFAP. The Kd at hFAP (M39-A757) was determined as 0.013 nM. This molecule also came in with a solubility in “Kinetic solubility” of 14 µM (≈ 6.87 µg/mL). The “rHeps CLint” value with Rat Hepatocytes (rHep) came to 18 μL/min/1E6. Also, the microsomal CLint in data set [2] was found to be 63 µL/min/mg.
For `CCOC1(c2ccc3nccc(C(=O)NCC(=O)N4CSC[C@H]4C#N)c3c2)CC1` [Example 76, (R)—N-(2-(4-Cyanothiazolidin-3-yl)-2-oxoethyl)-6-(1-ethoxycyclopropyl)quinoline-4-carboxamide], the values for the IC50 (in data set [1]; on hFAP) were 580 nM and 1.3 nM, respectively. This molecule had a Kd at hFAP (M39-A757) of 2 nM. Also, the solubility in the data set “Kinetic solubility” was 900 µM (≈ 369 µg/mL). Besides, the “rHeps CLint” value in the data set on Rat Hepatocytes (rHep) came to 34 μL/min/1E6. The molecule further gave a microsomal CLint in data set [2] of 140 µL/min/mg.
`N#C[C@@H]1CSCN1C(=O)CNC(=O)c1ccnc2ccc(C3CC3)cc12` [Example 77, (R)—N-(2-(4-Cyanothiazolidin-3-yl)-2-oxoethyl)-6-cyclopropylquinoline-4-carboxamide]: the IC50 in data set [1] was determined as 38 nM; against hFAP, 0.59 nM. The Kd on hFAP (M39-A757) is 1.4 nM. Further, the solubility in the data set “Kinetic solubility” worked out at 470 µM (≈ 172 µg/mL). Further, in the data set with Rat Hepatocytes (rHep), the “rHeps CLint” value was determined as 44 μL/min/1E6. This molecule returned a microsomal CLint in data set [2] of 58 µL/min/mg.
